From patent US5574161A, “7-(aminomethyl-oxa-7-aza-bicyclo[3.3.0]oct-7-yl)quinolonecarboxylic and 7-(aminomethyl-oxa-7-aza-bicyclo[3.3.0]oct-7-yl naphthyridonecarboxylic acid derivatives” (Bayer Aktiengesellschaft, priority 1992, dated 1996)

Key:
Format in all cases: cell-based
[1] = system: Enterococcus faecalis 9790; assay: MIC, agar serial dilution, Enterococcus faecalis 9790; details: Iso-Sensitest agar, 37° C., about 20 hours
Procedure: (§1) The minimum inhibitory concentrations (MIC) were determined by means of serial dilution methods on Iso-Sensitest agar (Oxoid). For each substance to be tested, a series of agar plates was prepared which contained concentrations of the active compound which in each case decreased by a doubling dilution. The agar plates were inoculated with a Multipoint inoculator (Denley). For the inoculation, overnight cultures of the pathogens were used which had previously been diluted so that each inoculation spot contained about 10^4 colony-forming particles. The inoculated agar plates were incubated at 37° C. and the organism growth was recorded after about 20 hours. The MIC value (μg/ml) indicates the lowest concentration of active compound at which no growth was detected with the naked eye.
(§2) In the table below, the MIC values of some of the compounds according to the invention are listed in comparison with 1-cyclopropyl-6,8-difluoro-1,4-dihydro-7-(cis-2-oxa-5,8-diazabicyclo[4.3.0]non-8-yl)-4-oxo-3-quinoline-carboxylic acid hydrochloride (reference example A) and 8-chloro-1-cyclopropyl-6-fluoro-1,4-dihydro-7-(cis-2-oxa-5,8-diazabicyclo[4.3.0]non-8-yl)-4-oxo-3-quinoline-carboxylic acid hydrochloride (reference example B).

[2] = system: Staphylococcus aureus 133; assay: MIC, agar serial dilution, Staphylococcus aureus 133; details: Iso-Sensitest agar, 37° C., about 20 hours
Procedure: as §1, §2

[3] = system: Enterobacter aerog. ICB 5240; assay: MIC, agar serial dilution, Enterobacter aerog. ICB 5240; details: Iso-Sensitest agar, 37° C., about 20 hours
Procedure: as §1, §2

[4] = system: Staphylococcus aureus 1756; assay: MIC, agar serial dilution, Staphylococcus aureus 1756; details: Iso-Sensitest agar, 37° C., about 20 hours
Procedure: as §1, §2

[5] = system: Staphylococcus aureus ICB 25701; assay: MIC, agar serial dilution, Staphylococcus aureus ICB 25701; details: ICB25701, Iso-Sensitest agar, 37° C., about 20 hours
Procedure: as §1, §2

[6] = system: Enterobacter cloacae 2427; assay: MIC, agar serial dilution, Enterobacter cloacae 2427; details: Iso-Sensitest agar, 37° C., about 20 hours
Procedure: as §1, §2

Micrococcus luteus 9341 = assay: MIC, agar serial dilution, Micrococcus luteus 9341; details: Iso-Sensitest agar, 37° C., about 20 hours
Procedure: as §1, §2

[7] = system: Klebsiella pneumoniae 8085; assay: MIC, agar serial dilution, Klebsiella pneumoniae 8085; details: Iso-Sensitest agar, 37° C., about 20 hours
Procedure: as §1, §2

Escherichia coli 455/7 = assay: MIC, agar serial dilution, Escherichia coli 455/7; details: Iso-Sensitest agar, 37° C., about 20 hours
Procedure: as §1, §2

[8] = system: Pseudomonas aeruginosa ICB 308029; assay: MIC, agar serial dilution, Pseudomonas aeruginosa ICB 308029; details: ICB308029, Iso-Sensitest agar, 37° C., about 20 hours
Procedure: as §1, §2

Morganella morganii 932 = assay: MIC, agar serial dilution, Morganella morganii 932; details: Iso-Sensitest agar, 37° C., about 20 hours
Procedure: as §1, §2

Providencia sp. 12012 = assay: MIC, agar serial dilution, Providencia sp. 12012; details: Iso-Sensitest agar, 37° C., about 20 hours
Procedure: as §1, §2

[9] = system: Enterococcus faecalis 27101; assay: MIC, agar serial dilution, Enterococcus faecalis 27101; details: Iso-Sensitest agar, 37° C., about 20 hours
Procedure: as §1, §2

| Structure (SMILES) | MIC [1] | MIC [2] | MIC [3] | MIC [4] | MIC [5] | MIC [6] | MIC (Micrococcus luteus 9341) | MIC [7] | MIC (Escherichia coli 455/7) | MIC [8] | MIC (Morganella morganii 932) | MIC (Providencia sp. 12012) | MIC [9] |
| --- | --- | --- | --- | --- | --- | --- | --- | --- | --- | --- | --- | --- | --- |
| Cl.O=C(O)c1cn(C2CC2)c2c(F)c(N3C[C@@H]4NCCO[C@@H]4C3)c(F)cc2c1=O (relative stereo) [A, 1-cyclopropyl-6,8-difluoro-1,4-dihydro-7-(cis-2-oxa-5,8-diazabicyclo[4.3.0]non-8-yl)-4-oxo-3-quinoline-carboxylic acid hydrochloride] | 0.25 µg/mL | 0.06 µg/mL | 32 µg/mL | 0.06 µg/mL | 2 µg/mL | 0.125 µg/mL | 0.5 µg/mL | 0.06 µg/mL | 4 µg/mL | 64 µg/mL | 0.125 µg/mL | 0.125 µg/mL | 0.25 µg/mL |
| Cl.O=C(O)c1cn(C2CC2)c2c(Cl)c(N3C[C@@H]4NCCO[C@@H]4C3)c(F)cc2c1=O (relative stereo) [B, 8-chloro-1-cyclopropyl-6-fluoro-1,4-dihydro-7-(cis-2-oxa-5,8-diazabicyclo[4.3.0]non-8-yl)-4-oxo-3-quinoline-carboxylic acid hydrochloride] | 0.125 µg/mL | 0.03 µg/mL | 16 µg/mL | 0.015 µg/mL | 0.5 µg/mL | 0.25 µg/mL | 0.25 µg/mL | 0.06 µg/mL | 2 µg/mL | 64 µg/mL | 0.06 µg/mL | 0.06 µg/mL | 0.125 µg/mL |
| Cl.NCC12CN(c3c(F)cc4c(=O)c(C(=O)O)cn(C5CC5)c4c3F)CC1CCO2 (stereo not shown) [Example 1B, 7-(1-aminomethyl-2-oxa-7-aza-bicyclo[3.3.0]oct-7-yl) -1-cyclopropyl-6,8-difluoro-1,4-dihydro-4-oxo-3-quinolinecarboxylic acid hydrochloride] | 0.125 µg/mL | 0.06 µg/mL | 8 µg/mL | ≤ 0.015 µg/mL | 1 µg/mL | 0.06 µg/mL | 0.25 µg/mL | 0.06 µg/mL | 2 µg/mL | 16 µg/mL | 0.03 µg/mL | 0.06 µg/mL | 0.06 µg/mL |
| NCC12CN(c3c(F)cc4c(=O)c(C(=O)O)cn(C5CC5)c4c3Cl)CC1CCO2.O=C(O)C(F)(F)F (stereo not shown) [Example 2B, 7-(1-aminomethyl-2-oxa-7-aza-bicyclo[3.3.0]oct-7-yl)-8-chloro-1-cyclopropyl-6-fluoro-1,4-dihydro-4-oxo-3-quinolinecarboxylic acid trifluoroacetate] | 0.06 µg/mL | 0.015 µg/mL | 8 µg/mL | 0.0039 µg/mL | 0.25 µg/mL | 0.06 µg/mL | 0.125 µg/mL | 0.03 µg/mL | 1 µg/mL | 32 µg/mL | 0.03 µg/mL | 0.03 µg/mL | 0.03 µg/mL |
